From patent US6610675B1 (priority 1980, dated 2003) come the findings set out here.

One data set deals with thymus weight in rats. The experiment in a line: Thymus inhibition testing (subcutaneous administration). Format: in vivo, rat. The procedure:
Several further studies were undertaken to determine the effects of selected compounds of the invention on thymi weights in rats when the drugs were systemically administered. In each of these studies, male Sprague-Dawley rats were used. […] On the fifth day (48 hours following the last treatment), the animals were sacrificed and the thymi weights were recorded. […] It is evident that the higher the inhibition of thymus activity at a given dose, the more toxic the compound is.

Data set [1] has as its system granulation tissue formation caused by implantation of cotton pellets. The data set can be described thus: Granuloma formation test (local cotton pellet granuloma assay). It is filed as in vivo, rat. The following applies: for Body wt. gain / Granulation tissue Dry wt. / Granulation tissue Dry wt. Inhibition / Granulation tissue Wet wt. / Granulation tissue Wet wt. Inhibition / Thymus wt.: Table V-a. The procedure:
The test compound was dissolved in acetone and aliquots of varying concentrations were injected into cotton pellets. The pellets were dried and then one pellet was implanted beneath the skin of each test rat. Six days later, the animals were sacrificed and the granulation tissue (granuloma) which formed in and around the implanted pellet was removed, dried and weighed. In addition, the thymi and adrenals were removed and weighed.

The mark [2] stands for this setting: Table IX, 3 mg/kg/day s.c., three days.
The mark [3] stands for this setting: Table IX, 10 mg/kg/day s.c., three days.
[4] abbreviates: Table IX, 30 mg/kg/day s.c., three days.
Setting [5] is: Table IX, 100 mg/kg/day s.c., three days.
Where [6] appears, read: Table VIII, 10 mg/kg/day s.c., three days.
The mark [7] stands for this setting: chloromethyl 11β-hydroxy-17α-isopropoxycarbonyloxyandrost-4-en-3-one-17β-carboxylate = 1.

Structures are written as SMILES.

`COC(=O)O[C@]1(C(=O)OCCl)[C@H](C)C[C@H]2[C@@H]3CCC4=CC(=O)C=C[C@]4(C)[C@@]3(F)[C@@H](O)C[C@@]21C` [chloromethyl 9α-fluoro-11β-hydroxy-17α-methoxycarbonyloxy-16α-methylandrosta-1,4-dien-3-one-17β-carboxylate]: the Body weight gain in the data set with thymus weight in rats (setting [2]) is on record as 18.8 ± 1.4 g; with thymus weight in rats (setting [3]), 13.8 ± 1.6 g; in the data set on thymus weight in rats (setting [4]) it was 12.0 ± 0.8 g; in the data set on thymus weight in rats (setting [5]), 9.8 ± 1.3 g. For the same compound, the Thymus wt. in the data set on thymus weight in rats (setting [2]) was determined as 426 ± 19 mg; with thymus weight in rats (setting [3]), 354 ± 8 mg; with thymus weight in rats (setting [4]), 282 ± 11 mg; in the data set on thymus weight in rats (setting [5]), 206 ± 15 mg. The “Thymus wt. Decrease” value with thymus weight in rats (setting [2]) was 0.0%; in the data set on thymus weight in rats (setting [3]), 16.9%; with thymus weight in rats (setting [4]), 33.8%; with thymus weight in rats (setting [5]) it was 51.6%. Also, the “Relative Potency (TED40)” value with thymus weight in rats (Table XII, hydrocortisone 17-butyrate = 1) is on record as 1/36. The same compound came in with a TED40 in the data set with thymus weight in rats (Table XII, thymus inhibition effect, subcutaneously) of 46.0 mg/kg. Further, in data set [1] (Table XII, anti-inflammatory effect in cotton pellet granuloma), the ED50 is 2.38 μg/pellet.
In the case of `CCCOC(=O)O[C@]1(C(=O)OCCl)[C@H](C)C[C@H]2[C@@H]3CCC4=CC(=O)C=C[C@]4(C)[C@@]3(F)[C@@H](O)C[C@@]21C` [chloromethyl 9α-fluoro-11β-hydroxy-16α-methyl-17α-propoxycarbonyloxyandrosta-1,4-dien-3-one-17β-carboxylate], in the data set on thymus weight in rats (setting [6]), the Body weight gain came to 2.7 ± 1.7 g, the Thymus wt. was determined as 277 ± 25 mg and the “Thymus wt. Inhibition” value was 49.6%. In data set [1] (0.3 μg/pellet), the Body wt. gain turned out to be 35.6 ± 1.0 g, the “Granulation tissue Dry wt.” value is 55.1 ± 6.2 mg, the “Granulation tissue Dry wt. Inhibition” value is reported as 31.2% and the “Granulation tissue Wet wt.” value is 454 ± 27 mg. In data set [1] (0.3 μg/pellet), the “Granulation tissue Wet wt. Inhibition” value was 13.5% and the Thymus wt. stood at 523 ± 28 mg. In addition, in data set [1] (1 μg/pellet), the Body wt. gain came out at 31.9 ± 0.8 g, the “Granulation tissue Dry wt.” value is 42.9 ± 5.1 mg, the “Granulation tissue Dry wt. Inhibition” value came out at 46.4% and the “Granulation tissue Wet wt.” value was 415 ± 30 mg. Moreover, in data set [1] (1 μg/pellet), the “Granulation tissue Wet wt. Inhibition” value stood at 21.0% and the Thymus wt. stood at 453 ± 21 mg. Further, in data set [1] (3 μg/pellet), the Body wt. gain is on record as 34.1 ± 1.9 g, the “Granulation tissue Dry wt.” value was 29.7 ± 3.2 mg, the “Granulation tissue Dry wt. Inhibition” value is reported as 62.9% and the “Granulation tissue Wet wt.” value is on record as 360 ± 18 mg. Besides, in data set [1] (3 μg/pellet), the “Granulation tissue Wet wt. Inhibition” value is recorded as 31.4% and the Thymus wt. is listed as 504 ± 42 mg. Besides, in data set [1] (10 μg/pellet), the Body wt. gain was found to be 33.1 ± 1.6 g, the “Granulation tissue Dry wt.” value came out at 28.5 ± 2.8 mg, the “Granulation tissue Dry wt. Inhibition” value was found to be 64.4% and the “Granulation tissue Wet wt.” value was determined as 350 ± 13 mg. In data set [1] (10 μg/pellet), the “Granulation tissue Wet wt. Inhibition” value is on record as 33.3% and the Thymus wt. is on record as 547 ± 26 mg. In data set [1] (setting [7]), the “Relative potency (ED40)” value was found to be 529 and the “Relative potency (ED60)” value is 277. Further, the ED40 in data set [1] (dose causing 40% inhibition of granulation tissue weight) was found to be 0.58 μg/pellet. Further, the ED50 in data set [1] (dose causing 50% inhibition of granulation tissue weight) is reported as 1.20 μg/pellet. Moreover, the ED60 in data set [1] (dose causing 60% inhibition of granulation tissue weight) was determined as 2.49 μg/pellet.
